# Source: paper PMC2360155, “Novel retinoic acid metabolism blocking agents have potent inhibitory activities on human breast cancer cells and tumour growth” (British Journal of Cancer, 2007)
# Assays:
# [1] = molecular target: T1, CRABPII (Mus musculus, UniProt P22935); assay: CRABP competition binding assay, CRABPII; details: for IC50: competition with [3H]-all-trans-RA
# T1 construct: Wild-type full-length cDNAs for mouse CRABPI and CRABPII were subcloned into the prokaryotic expression vector pRSETB; pRSETB vector fusion leader (purified on Ni-NTA, so a His tag); made in house; host or cells: Escherichia coli BL21(DE3)pLys
# T1 sequence (P22935 1-138): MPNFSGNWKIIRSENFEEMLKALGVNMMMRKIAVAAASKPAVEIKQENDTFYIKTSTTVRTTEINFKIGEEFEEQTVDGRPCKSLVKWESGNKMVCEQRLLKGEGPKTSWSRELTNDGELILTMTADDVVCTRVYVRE
# Protocol: Wild-type full-length cDNAs for mouse CRABPI and CRABPII were subcloned into the prokaryotic expression vector pRSETB and transformed into Escherichia coli strain BL21(DE3)pLys ([Chen et al, 1995]). Recombinant fusion proteins were prepared essentially as we have described previously using Ni-NTA resin ([Chen et al, 1995]). The binding of each RAMBA to CRABPI and CRABPII was determined by competition binding assays as described previously ([Chen et al, 1995]). […] IC50 values were calculated as described above in the RAR binding studies.
# [2] = molecular target: T2, RARγ (Mus musculus, UniProt P18911); assay: Retinoid receptor competition binding assay, RARγ; details: competition with 1.0 nM [3H]-all-trans-RA
# T2 construct: expressed in transfected cells; host or cells: CV-1 cells
# T2 sequence (P18911 1-458): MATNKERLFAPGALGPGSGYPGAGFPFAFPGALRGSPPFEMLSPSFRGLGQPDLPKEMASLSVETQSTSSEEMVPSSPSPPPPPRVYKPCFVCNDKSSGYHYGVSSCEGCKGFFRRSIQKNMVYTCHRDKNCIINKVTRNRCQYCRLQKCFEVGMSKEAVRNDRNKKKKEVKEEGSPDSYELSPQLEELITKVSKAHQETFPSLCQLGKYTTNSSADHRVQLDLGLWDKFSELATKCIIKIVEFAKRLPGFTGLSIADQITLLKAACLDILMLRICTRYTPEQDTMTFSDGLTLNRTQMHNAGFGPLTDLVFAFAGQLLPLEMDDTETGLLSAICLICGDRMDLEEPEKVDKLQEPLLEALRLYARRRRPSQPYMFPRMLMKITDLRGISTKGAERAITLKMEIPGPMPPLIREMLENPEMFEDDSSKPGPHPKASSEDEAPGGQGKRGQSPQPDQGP
# [3] = molecular target: T3, RXRα (Homo sapiens, UniProt P19793); assay: Retinoid receptor competition binding assay, RXRα; details: competition with 1.0 nM [3H]-9-cis-RA
# T3 construct: The full-length cDNA clones for RARα, RARβ, RARγ and RXRα were cloned into the prokaryotic expression vector pET29; S-Tag; made in house; host or cells: prokaryotic host (pET29 vector)
# T3 sequence (P19793 1-462): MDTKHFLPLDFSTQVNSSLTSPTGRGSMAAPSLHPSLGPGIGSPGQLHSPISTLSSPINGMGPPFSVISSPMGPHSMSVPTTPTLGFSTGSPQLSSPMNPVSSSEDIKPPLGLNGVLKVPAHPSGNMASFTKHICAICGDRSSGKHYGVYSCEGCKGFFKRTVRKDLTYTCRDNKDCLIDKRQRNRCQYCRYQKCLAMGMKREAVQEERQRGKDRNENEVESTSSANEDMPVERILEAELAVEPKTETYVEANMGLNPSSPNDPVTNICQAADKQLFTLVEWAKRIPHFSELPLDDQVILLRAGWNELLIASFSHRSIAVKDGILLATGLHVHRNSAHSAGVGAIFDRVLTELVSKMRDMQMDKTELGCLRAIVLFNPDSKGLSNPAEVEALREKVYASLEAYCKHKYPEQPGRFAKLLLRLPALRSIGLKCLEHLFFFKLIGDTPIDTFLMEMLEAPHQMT
# [4] = molecular target: T4, RARα (Mus musculus, UniProt P11416); assay: Transactivation assay (RARE-CAT reporter, CV-1 cells), RARα; assay type: cell-based; details: 50% of maximal activity obtained with 10^−6 M all-trans-RA
# T4 sequence (P11416 1-462): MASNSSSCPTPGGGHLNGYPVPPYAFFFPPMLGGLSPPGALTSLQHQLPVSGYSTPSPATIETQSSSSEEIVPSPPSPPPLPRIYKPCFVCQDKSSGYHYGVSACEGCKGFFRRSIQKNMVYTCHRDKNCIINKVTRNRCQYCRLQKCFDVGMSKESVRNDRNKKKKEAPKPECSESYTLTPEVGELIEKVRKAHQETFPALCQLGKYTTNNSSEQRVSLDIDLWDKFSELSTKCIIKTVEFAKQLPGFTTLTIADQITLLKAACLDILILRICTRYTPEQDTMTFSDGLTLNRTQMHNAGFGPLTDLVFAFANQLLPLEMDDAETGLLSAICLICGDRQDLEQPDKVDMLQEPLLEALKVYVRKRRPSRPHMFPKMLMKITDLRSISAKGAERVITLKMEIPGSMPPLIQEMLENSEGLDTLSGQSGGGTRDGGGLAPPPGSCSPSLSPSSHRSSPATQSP
# Protocol: (§1) Briefly, CV-1 cells were cotransfected with 4 μg RAR subtype (RARα, RARβ or RARγ) expression vector construct in pSG5, 4 μg RARE-CAT reporter DNA and 1 μg pCMV-β-gal DNA. Twenty-four hours following transfection, the cells were treated with various concentrations of each RAMBA ranging from 10^−11–10^−5 M along with an ethanol carrier control. Additional cells were treated with 10^−6 M all-trans-RA for normalisation. Twenty-four hours later, the cells were harvested and CAT and β-gal activities were assayed.
# [5] = molecular target: T2, RARγ; assay: Transactivation assay (RARE-CAT reporter, CV-1 cells), RARγ; assay type: cell-based; details: 50% of maximal activity obtained with 10^−6 M all-trans-RA
# Protocol: as §1
# [6] = system: T47D cells; set-up: method as in Patel et al. (2004); details: inhibition of cell proliferation by 50%; ref Patel et al. (2004); read-out: Cellular IC50, T47D; cited from earlier work
# [7] = molecular target: T4, RARα; assay: Retinoid receptor competition binding assay, RARα; set-up: The full-length cDNA clones for RARα, RARβ, RARγ and RXRα were cloned into the prokaryotic expression vector pET29; S-Tag; made in house; host or cells: prokaryotic host (pET29 vector); details: competition with 1.0 nM [3H]-all-trans-RA
Structure (SMILES),IC50 [1] [nM],IC50 [2] [nM],IC50 [3] [nM],EC50 [4] [nM],EC50 [5] [nM],IC50 [6] [nM],IC50 [7] [nM],Kd ([1]; for comparison) [nM]
CC1=C(/C=C/C(C)=C/C=C/C(C)=C/C(=O)O)C(C)(C)CCC1n1ccnc1 (stereo not shown) [VN/14-1],> 500,16,> 500,300,1000,3,16,–
"CC1=C(/C=C/C(C)=C/C=C/C(C)=C/C(=O)O)C(C)(C)CCC1 [ATRA, all-trans-retinoic acid, reference compound]",–,–,–,–,–,8,–,60
CC1=C(/C=C/C(C)=C/C=C/C(C)=C\C(=O)Nc2ccc(O)cc2)C(C)(C)CCC1n1ccnc1 (stereo not shown) [VN/69-1],> 500,> 1000,> 500,> 10000,> 10000,–,> 1000,–
CC1=C(/C=C/C(C)=C/C=C/C(C)=C/C(=O)Nc2ccc(O)cc2)C(C)(C)CCC1n1ccnc1 (stereo not shown) [VN/66-1],> 500,> 1000,> 500,> 10000,> 10000,570,> 1000,–
